EC50 data for 20 molecules are collected here from PubChem BioAssay AID588580 (Sanford-Burnham Center for Chemical Genomics, 2011).

Active and inactive are the calls of the source.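 The calls were made as follows: active = mean EC50 of 20 µM or lower; inactive = the rest.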

The test addresses CHO XBP1-luciferase reporter, UPR activation, luminescence. Nature of the test: XBP1 luciferase reporter activation in CHO cells – cell-based, luciferase luminescence, set 2, SAR follow-up (AID 588580). (In general: In a reporter assay the amount or activity of a reporter protein is the signal.)
By EC50 is commonly meant the concentration giving half of the maximal effect. For `O=C(Nc1cccc(C(F)(F)F)c1)c1cc(-c2ccncc2)nc2ccccc12`, the EC50 is > 80 µM (inactive).
Take `O=C(Nc1cccc(Br)c1)c1cc(-c2ccncc2)nc2ccccc12`: the EC50 is > 80 µM (inactive).
As to `O=C(Nc1ccc(F)cc1)c1cc(-c2ccncc2)nc2ccccc12`, the EC50 result is “inactive”.
The figure for `O=C(Nc1cccc(F)c1Br)c1cc(-c2ccncc2)nc2ccccc12` is > 80 µM (inactive).
The same measure for `O=C(Nc1cc(F)ccc1F)c1cc(-c2ccncc2)nc2ccccc12`: > 80 µM (inactive).
For the molecule `Cc1cc(Br)cc(NC(=O)c2cc(-c3ccncc3)nc3ccccc23)c1`, the EC50 is > 80 µM (inactive).
Take `Cc1cc(NC(=O)c2cc(-c3ccccc3)nc3ccccc23)ccc1Br`: the EC50 is > 80 µM (inactive).
For the molecule `Cc1ccc(NC(=O)c2cc(-c3ccncc3)nc3ccccc23)cc1`, the EC50 is 13.4 µM.
In the case of `O=C(Nc1cccc(Cl)c1)c1cc(-c2ccncc2)nc2ccccc12`, the EC50 was > 80 µM (inactive).
For the molecule `O=C(Nc1cccc(F)c1)c1cc(-c2ccncc2)nc2ccccc12`, the EC50 result is “inactive”.
For `O=C(Nc1cccc(F)c1F)c1cc(-c2ccncc2)nc2ccccc12`, the EC50 is > 80 µM (inactive).
As to `Cc1cc(NC(=O)c2cc(-c3ccncc3)nc3ccccc23)ccc1Cl`, the EC50 entry is “inactive”.
As for `O=C(Nc1ccc(F)c(F)c1)c1cc(-c2ccncc2)nc2ccccc12`, the EC50 result was “inactive”.
Regarding `O=C(Nc1ccc(C(F)(F)F)cc1)c1cc(-c2ccncc2)nc2ccccc12`, the EC50 was 2.2 µM.
As for `Cc1cccc(NC(=O)c2cc(-c3ccncc3)nc3ccccc23)c1`, the EC50 is > 80 µM (inactive).
On to `O=C(Nc1ccc(Br)c(C(F)(F)F)c1)c1cc(-c2ccncc2)nc2ccccc12`, for which the EC50 was > 80 µM (inactive).
The same measure for `O=C(Nc1ccccc1Br)c1cc(-c2ccncc2)nc2ccccc12`: > 80 µM (inactive); for `Cc1cc(NC(=O)c2cc(-c3ccncc3)nc3ccccc23)ccc1F`: > 80 µM (inactive).
Consider `COc1cccc(NC(=O)c2cc(-c3ccncc3)nc3ccccc23)c1`, for which the EC50 was > 80 µM (inactive).
Consider `O=C(Nc1ccc(Cl)cc1)c1cc(-c2ccncc2)nc2ccccc12`, for which the EC50 was 8.42 µM.
